Source: article PMC9248904, “Genomic and Chemical Decryption of the Bacteroidetes Phylum for Its Potential to Biosynthesize Natural Products” (Microbiology Spectrum, 2022)
Converted amounts (≈) assume the structure as drawn. Where two headings read alike, the source gives them in different places. *1 amine or outer side, *2 acyl side, *3 side chain or, on linkers, in order; H or OH if unused. Where a SMILES comes first, the peptide text is derived from it. Bridges are numbered along the chain shown (N, C = ends). [ ]: non-standard residue; d: D form. The star is where a group is joined. Phe(3R-OH) = O=C([C@@H](N[*:1])[C@H](O[*:3])c1ccccc1)[*:2]; Asp(3S-OH) = N[C@H](C(=O)O)[C@H](O)C(=O)O; Ile(3R-OH) = CC[C@@](C)(O)[C@H](N)C(=O)O; d(aIle) = CC[C@H](C)[C@@H](N)C(=O)O; d(aThr) = C[C@@H](O)[C@@H](N)C(=O)O; X1 = CC(C)CCCCCC(N)C(C)C(=O)*; NMeV = CN[C@H](C(=O)O)C(C)C; X2 = CCCCCCCC(N)C(C)C(=O)*; Dap = NC[C@H](N)C(=O)O

Tests used:
[1] = test system: Fusarium oxysporum ATCC 7601; test: microbe, parasite or virus in culture; type: cell-based
Description: (§1) The MIC was determined by broth microdilution method in 96-well plates with 100 µL assay volume per well following EUCAST instructions ([116], [117]) for E. coli ATCC 35218, E. coli ATCC 25922 ΔTolC, E. coli MG1655, Pseudomonas aeruginosa ATCC 27853, P. aeruginosa PAO750, Klebsiella pneumoniae ATCC 13883, Moraxella catarrhalis ATCC 25238, Acinetobacter baumannii ATCC 19606, Bacillus subtilis DSM 10, Staphylococcus aureus ATCC 25923, and Micrococcus luteus DSM 20030. Listeria monocytogenes DSM 20600 (1 day of incubation at 37°C) and Mycobacterium smegmatis ATCC 607 (2 days of incubation at 37°C) were grown in BHI broth supplemented with 1% (vol/vol) Tween 80. Candida albicans FH2173 was grown in MHIIB over 2 days of incubation at 37°C (pre-culture 2 days at 28°C). Approximate inoculation cell density for all strains was 500,000 CFU/mL, except 1,000,000 CFU/mL were used for M. smegmatis and C. albicans. For all fungal screenings 100,000 spores/mL were used and incubated at 37°C for Aspergillus flavus ATCC 9170 (MHIIB) and 25°C for Z. tritici MUCL45407 (4 g/L yeast extract, 4 g/L malt extract, 4 g/L sucrose) and Fusarium oxysporum ATCC 7601 (potato dextrose broth, Sigma). Growth inhibition was detected by optical density (600 nm) or for M. luteus, L. monocytogenes, C. albicans, M. smegmatis, and all fungi by quantification of free ATP using BacTiter-Glo after 24 to 48 h (72 h for Z. tritici). All MIC assays were performed at least in triplicate. FE(III)-citrate was added at molar ratios of 1:1 to samples in DMSO to test compounds in their iron bound conformation.

Candida albicans FH2173 = test: microbe, parasite or virus in culture; type: cell-based; details: C. albicans FH2173, at least triplicate; for MIC: MHIIB, 2 days 37°C, BacTiter-Glo, Iron -
Description: as §1

Z. tritici MUCL45407 = test: microbe, parasite or virus in culture; type: cell-based
Description: as §1

[2] = test system: Staphylococcus aureus ATCC 25923; type: cell-based; details: ATCC 25923
Description: as §1

[3] = test system: Moraxella catarrhalis ATCC 25238; type: cell-based; details: ATCC 25238
Description: as §1

[4] = test system: Micrococcus luteus DSM 20030; type: cell-based; details: DSM 20030
Description: as §1

Bacillus subtilis DSM 10 = type: cell-based; details: DSM 10
Description: as §1

[5] = test system: Acinetobacter baumannii ATCC 19606; type: cell-based; details: ATCC 19606
Description: as §1

[6] = test system: Pseudomonas aeruginosa ATCC 27853; type: cell-based; details: ATCC 27853
Description: as §1

[7] = test system: Klebsiella pneumoniae ATCC 13883; type: cell-based; details: ATCC 13883
Description: as §1

[8] = test system: Aspergillus flavus ATCC 9170; test: microbe, parasite or virus in culture; type: cell-based
Description: as §1

P. aeruginosa PAO750 = type: cell-based, Pseudomonas aeruginosa; details: broth microdilution, 96-well, EUCAST, OD600, Iron -, at least triplicate
Description: as §1

E. coli ATCC 25922 ΔTolC = type: cell-based, Escherichia coli; details: broth microdilution, 96-well, EUCAST, OD600, Iron -, at least triplicate
Description: as §1

E. coli ATCC 35218 = type: cell-based, Escherichia coli; details: ATCC 35218
Description: as §1

E. coli MG1655 = type: cell-based, Escherichia coli; details: broth microdilution, 96-well, EUCAST, OD600, Iron -, at least triplicate
Description: as §1

[9] = test system: Mycobacterium smegmatis ATCC 607; test: microbe, parasite or virus in culture; type: cell-based; details: Mycolicibacterium smegmatis, ATCC607, 48 h; M. smegmatis ATCC 607; BHI broth + 1% Tween 80, 2 days 37°C; BacTiter-Glo; Iron -; at least triplicate; read-out: MIC
Description: as §1

[10] = Z. tritici MUCL45407, 25°C, 72 h, 100,000 spores/mL, BacTiter-Glo, Iron -, at least triplicate

| Compound | MIC [2] [µg/mL] | MIC [3] [µg/mL] | MIC [4] [µg/mL] | MIC (Bacillus subtilis DSM 10) [µg/mL] | MIC [5] [µg/mL] | MIC [6] [µg/mL] | MIC ([1]; ATCC 7601) [µg/mL] | MIC (Candida albicans FH2173) [µg/mL] | MIC ([8]; ATCC 9170) [µg/mL] | MIC (Z. tritici MUCL45407; [10]) [µg/mL] | MIC (E. coli ATCC 25922 ΔTolC) [µg/mL] | MIC (E. coli ATCC 35218) [µg/mL] | also measured |
| --- | --- | --- | --- | --- | --- | --- | --- | --- | --- | --- | --- | --- | --- |
| C[C@@H]1[C@H](O)[C@@H](C)/C=C/C=C/C=C/C=C/C=C/C=C/C=C/[C@H](O[C@@H]2O[C@H](C)[C@@H](O)[C@H](N)[C@@H]2O)C[C@@H]2O[C@](O)(C[C@@H](O)C[C@@H](O)[C@H](O)CC[C@@H](O)C[C@@H](O)CC(=O)O[C@H]1C)C[C@H](O)[C@H]2C(=O)O [Amphotericin B, reference compound] | – | – | – | – | – | – | – | – | – | – | – | – | MIC ([1]; Fusarium oxysporum, ATCC7601, F. oxysporum ATCC 7601, potato dextrose broth, 25°C, 100,000 spores/mL, BacTiter-Glo, Iron -, at least triplicate, read-out: MIC): 4 µg/mL (≈ 4.33 µM); MIC (Candida albicans FH2173; Candida albicans, 48 h, read-out: MIC): 4 µg/mL (≈ 4.33 µM); MIC (Z. tritici MUCL45407; Zymoseptoria tritici, MUCL45407, 72 h): 0.031 µg/mL (≈ 0.0335 µM) |
| CC[C@H](C)[C@H]1NC(=O)[C@H]([C@H](O)c2ccccc2)NC(=O)[C@H]([C@H](O)C(=O)O)NC(=O)[C@@H](C)NC(=O)[C@H](NC(=O)[C@H](C(C)C)N(C)C(=O)C(C)C(N)CCCCCC(C)C)[C@@H](C)OC(=O)[C@H]([C@](C)(O)CC)NC(=O)[C@H]([C@H](O)C(=O)O)NC(=O)[C@H](CC(C)C)NC(=O)[C@H]([C@H](O)C(=O)O)NC(=O)[C@@H](CC(C)C)NC(=O)[C@H](CN)NC(=O)[C@@H](CCCCN)NC(=O)[C@H](CO)NC1=O (stereo partly drawn) [Chitinopeptin A] (X1-[NMeV][d(aThr)][dA][Asp(3S-OH)][Phe(3R-OH)][d(aIle)]S[dK][Dap][dL][Asp(3S-OH)]L[Asp(3S-OH)][Ile(3R-OH)]; ester 2-C) | > 64 | 2 (≈ 1.11 µM) | 32 (≈ 17.7 µM) | 4 (≈ 2.21 µM) | 16 (≈ 8.84 µM) | > 64 | > 64 | 4 (≈ 2.21 µM) | > 64 | 16 (≈ 8.84 µM) | > 64 | > 64 | MIC, iron bound form [3]: 4 µg/mL (≈ 2.21 µM); MIC, iron bound form (Bacillus subtilis DSM 10): 8 µg/mL (≈ 4.42 µM); MIC [7]: > 64 µg/mL; MIC, iron bound form (Candida albicans FH2173; Iron +: Fe(III)-citrate added at molar ratio 1:1): 32 µg/mL; MIC (Candida albicans FH2173; listed as 1): 4 to 8 µg/mL; MIC (P. aeruginosa PAO750): > 64 µg/mL; MIC (E. coli MG1655): > 256 µg/mL |
| CCCCCCCC(N)C(C)C(=O)N(C)[C@H](C(=O)N[C@H]1C(=O)N[C@H](C)C(=O)N[C@@H]([C@H](O)C(=O)O)C(=O)N[C@@H]([C@H](O)c2ccccc2)C(=O)N[C@H]([C@@H](C)CC)C(=O)N[C@@H](CO)C(=O)N[C@H](CCCCN)C(=O)N[C@@H](CN)C(=O)N[C@H](CC(C)C)C(=O)N[C@@H]([C@H](O)C(=O)O)C(=O)N[C@@H](CC(C)C)C(=O)N[C@@H]([C@H](O)C(=O)O)C(=O)N[C@@H]([C@](C)(O)CC)C(=O)O[C@@H]1C)C(C)C (stereo partly drawn) [Chitinopeptin B] (X2-[NMeV][d(aThr)][dA][Asp(3S-OH)][Phe(3R-OH)][d(aIle)]S[dK][Dap][dL][Asp(3S-OH)]L[Asp(3S-OH)][Ile(3R-OH)]; ester 2-C) | > 64 | 2 (≈ 1.11 µM) | 32 (≈ 17.8 µM) | 4 (≈ 2.23 µM) | 64 (≈ 35.7 µM) | > 64 | > 64 | 8 (≈ 4.46 µM) | > 64 | 16 (≈ 8.91 µM) | > 64 | > 64 | MIC (Candida albicans FH2173; listed as 2): 4 to 8 µg/mL |
| NNC(=O)c1ccncc1 [Isoniazid, reference compound] | – | – | – | – | – | – | – | – | – | – | – | – | MIC [9]: 1 µg/mL |
| C[C@@H]1[C@H](O)[C@@H](C)/C=C/C=C/CC/C=C/C=C/C=C/C=C/C(O[C@H]2O[C@H](C)[C@@H](O)[C@H](N)[C@@H]2O)CC2O[C@](O)(CC(O)C(O)CCC(O)CC(O)CC(O)CC(=O)O[C@H]1C)CC(O)C2C(=O)O (stereo partly shown) [Nystatin, reference compound] | – | – | – | – | – | – | – | 16 (≈ 17.3 µM) | – | 0.5 (≈ 0.54 µM) | – | – | MIC ([1]; F. oxysporum ATCC 7601, potato dextrose broth, 25°C, 100,000 spores/mL, BacTiter-Glo, Iron -, at least triplicate): 4 µg/mL (≈ 4.32 µM); MIC ([8]; A. flavus ATCC 9170, MHIIB, 37°C, 100,000 spores/mL, BacTiter-Glo, Iron -, at least triplicate): 16 µg/mL (≈ 17.3 µM) |
